Reference: publication PMC9926489, “Chemical Optimization of Selective Pseudomonas aeruginosa LasB Elastase Inhibitors and Their Impact on LasB-Mediated Activation of IL-1β in Cellular and Animal Infection Models” (ACS Infectious Diseases, 2023)

How the values were obtained:
[1] = Cytotoxicity screening (MTS), SAEC; format: cell-based; details: human, small airway epithelial cells (SAEC)
Method: Bronchial smooth muscle cells (BSMC, Lonza CC-2576), small airway epithelial cells (SAEC, Lonza CC-2547), or HepG2 cells (ATCC HB-8065) were seeded in 96-well plates at a density of 25,000 per well. Culture of these cells throughout the protocol utilized incubation at 37 °C, 5% CO2 in a humidified atmosphere, with BSMC and SAEC cells cultured in cell-specific media (Lonza) and HepG2 cells cultured in RPMI 1640 medium containing Glutamax (Gibco) and 10% fetal bovine serum. Plates containing BSMC cells were collagen coated to assist with cell adhesion. Following an overnight settling period, media was replaced with fresh media, with, or without, compound. Compound concentrations tested were 1, 3, 10, 30, and 100 μM, in duplicate. The cells were incubated with compound for 24 h. Control (1% DMSO) and positive standards terfenadine- and salmeterol-treated groups were included for both cell lines. […] The reaction was stopped with 12.5 μL of 10% SDS, plates briefly shaken, and absorbance (490 nm) read using a Spectramax M5e plate reader (Molecular Devices). Percentages of viable cells were calculated as: (test sample Abs 490 nM-mean blank Abs 490 nm)/(mean control Abs 490 nM-mean blank Abs 490 nm) × 100.

[2] = molecular target: T1, LasB N68S, T120I, A122T, S241G, S436L (Pseudomonas aeruginosa, UniProt P14756, S241G/S436L); experiment: LasB variant inhibition, culture supernatant: N68S, T120I, A122T, S241G, S436L; format: biochemical, P. aeruginosa
T1 construct: Most changes were identified in the mature peptide, however some occurred in the propeptide domain; endogenous in cells; host or cells: P. aeruginosa clinical CF isolate, culture supernatant
From the text: Compounds 12 and 16 were discovered as a result of optimizing potency against the LasB protein expressed from the wild-type (WT) reference strain P. aeruginosa PAO1. To understand the relative prevalence of the WT LasB protein versus other variants in clinical respiratory P. aeruginosa strains, the full-length lasB gene was amplified by PCR from 255 clinical isolates (obtained from CF sputum samples). […] Most changes were identified in the mature peptide, however some occurred in the propeptide domain, which could affect LasB processing (marked in italics in Table 4).
LasB inhibition assays were performed using purified LasB enzyme (1 ng/well) for compound screening or using culture supernatants (prepared as described in the ECR assay) for testing LasB variants. Hydrolysis of the fluorogenic peptide substrate 2-aminobenzoyl-Ala-Gly-Leu-Ala-4-nitrobenzylamide (Abz-AGLA-Nba; Peptide International) in 50 mM Tris-HCl (pH 7.4), supplemented with 2.5 mM CaCl2 was followed using an Envision microplate reader (PerkinElmer) at 315 nm excitation and 430 nm emission. […] IC50 values were determined from Hill plots using Dotmatics Studies ELN software. For the mechanism of inhibition studies, hydrolysis rates were measured in the presence of variable concentrations of substrate and inhibitor, and the inhibition constant (Ki) was determined using Dixon plot analysis.[31]

T1 sequence (P14756 198-498, looked up, stated change not applied): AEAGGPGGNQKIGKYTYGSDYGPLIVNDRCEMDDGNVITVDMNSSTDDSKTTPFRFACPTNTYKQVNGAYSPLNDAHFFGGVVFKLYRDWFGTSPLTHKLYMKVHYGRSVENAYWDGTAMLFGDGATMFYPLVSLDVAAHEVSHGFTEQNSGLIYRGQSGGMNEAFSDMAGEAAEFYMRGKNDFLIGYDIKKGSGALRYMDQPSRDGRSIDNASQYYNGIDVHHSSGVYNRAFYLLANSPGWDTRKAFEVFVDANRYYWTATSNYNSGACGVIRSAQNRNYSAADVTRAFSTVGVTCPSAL

SMILES	IC50 at 24 h [1] [nM]	IC50 [2] [nM]
COc1cc2sc(CNC(=O)C3(CC(=O)O)Cc4cc(F)c(F)cc4C3)nc2cc1OCCC[N+](C)(CCO)CCO [Compound 16]	> 100000	253
COc1cc2sc(CNC(=O)C3(CC(=O)O)Cc4ccccc4C3)nc2cc1OCCC[N+](C)(C)C [Compound 12]	> 100000	267
